# According to patent publication US9266908B2, “Inhibitors of arginase and their therapeutic applications” (MARS, INCORPORATED, priority 2011, dated 2016):
# Columns and labels:
# [1] = tested on: experimental autoimmune encephalomyelitis (EAE); conditions: animals undergoing EAE; cited from earlier work
# human arginase I (ARG I) = target: T1, human arginase I (ARG I) (Homo sapiens, UniProt P05089); assay: Inhibition of arginase I, spectrophotometric urea assay at 530 nm
# T1 sequence (P05089 1-322): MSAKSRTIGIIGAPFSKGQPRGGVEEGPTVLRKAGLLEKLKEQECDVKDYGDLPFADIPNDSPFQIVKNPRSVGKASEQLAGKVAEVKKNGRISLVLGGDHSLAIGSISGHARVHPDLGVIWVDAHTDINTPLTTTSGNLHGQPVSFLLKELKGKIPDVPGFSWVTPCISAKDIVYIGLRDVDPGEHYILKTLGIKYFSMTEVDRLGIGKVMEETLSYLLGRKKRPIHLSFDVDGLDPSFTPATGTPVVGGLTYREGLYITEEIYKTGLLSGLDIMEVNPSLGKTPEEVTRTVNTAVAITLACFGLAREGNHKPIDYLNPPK
# Description: (§1) Inhibition of arginase I (ARG I) and arginase II (ARG II) by the inventive compounds is followed spectrophotometrically at 530 nm. […] Solutions of arginase I and II are prepared in 100 mM sodium phosphate buffer, pH 7.4 containing 1 mg/ml of OVA to give an arginase stock solution at a final concentration of 100 ng/ml.
# (§2) To each well of a 96-well microtiter plate is add 40 μl of enzyme, 10 μl of an inventive compound and 10 μl of enzyme substrate (L-arginine+ manganese sulfate). For wells that are used as positive controls, only the enzyme and its substrate are added, while wells used as negative controls contain only manganese sulfate.
# (§3) After incubating the microtiter plate at 37° C. for 60 minutes, 150 μl of a urea reagent obtained by combining equal proportions (1:1) of reagents A and B is added to each well of the microtiter plate to stop the reaction. The urea reagent is made just before use by combining Reagent A (10 mM o-phthaldialdehyde, and 0.4% polyoxyethylene (23) lauryl ether (w/v) in 1.8 M sulfuric acid) with Reagent B (1.3 mM primaquine diphosphate, 0.4% polyoxyethylene (23) lauryl ether (w/v), 130 mM boric acid in 3.6 M sulfuric acid). After quenching the reaction mixture, the microtiter plate is allowed to stand for an additional 10 minutes at room temperature to allow color development. […] The normalized OD is then used to generate a dose-response curve by plotting the normalized OD values against log [concentration] and using regression analysis to compute the IC50 values.
# arginase II (ARG II) = target: T2, arginase II (ARG II) (Homo sapiens, UniProt P78540); assay: Inhibition of arginase II, spectrophotometric urea assay at 530 nm
# T2 sequence (P78540 23-354): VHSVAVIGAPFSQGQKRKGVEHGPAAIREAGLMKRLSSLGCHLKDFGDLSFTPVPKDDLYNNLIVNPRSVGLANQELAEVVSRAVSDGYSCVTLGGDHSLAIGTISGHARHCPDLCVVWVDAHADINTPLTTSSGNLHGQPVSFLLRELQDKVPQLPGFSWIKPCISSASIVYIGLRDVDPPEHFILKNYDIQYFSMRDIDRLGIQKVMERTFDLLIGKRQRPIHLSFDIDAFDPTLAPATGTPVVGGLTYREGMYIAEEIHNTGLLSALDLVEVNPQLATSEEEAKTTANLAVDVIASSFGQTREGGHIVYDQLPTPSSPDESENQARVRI
# Description: as §1, §2, §3
# human-Arginase-1 = target: T3, human-Arginase-1 (Homo sapiens, UniProt P05089); assay: Urea production in CHOK cells stably transfected with human-Arginase-1; type: cell-based; conditions: IC50 class, 5 mM arginine, 24 hours, read-out: CHOK Cell
# T3 construct: expressed in transfected cells; host or cells: CHOK cells
# T3 sequence (P05089 1-322): T1 sequence (P05089 1-322)
# Description: Table 3 also provides CHOK cell based IC50 values for illustrative arginase inhibitors. IC50 values were determined by measuring the production of urea in CHOK cells stably transfected with human-Arginase-1.
# Briefly, CHOK cells were stably transfected with human-arginase-1. To determiner the IC50 values for compounds in accordance with the present invention, parental CHOK cells and arginase-1 stably transfected cells were plated in a 96 well plate. Cells were plated using 200 μl of complete growth medium and incubated overnight at 37° C.
# Media from each of the wells containing cells was first removed and growth media supplemented with arginine at a concentration of 5 mM was added to each well. The test compounds were dissolved in PBS buffer to the desired concentration and added to appropriate wells. The plate was then incubated at 37° C. for 24 hours. After 24 hours the plates were spun down at 3000 RPM for 5 min and 50 μl of the media were transferred to a new plate.
# An aqueous solution of o-phthaldehyde, Brij, sulfuric acid, primaquine diphosphate and boric acid was added to each well and the plate was incubated for 10-15 minutes. The urea concentration in each well was determined by measuring the optical density at 520-530 nanometers using a standard curve. The IC50 values were calculated by measuring urea production at various concentrations of the inventive arginase inhibitors after subtracting the value related to the concentration of urea in control wells.
# bacterial arginase = conditions: cited from earlier work
# murine chronic model = conditions: cited from earlier work
# [2] = tested on: spontaneously hypertensive animals; conditions: cited from earlier work
Structure (SMILES),IC50 (human arginase I (ARG I)) [nM],IC50 (arginase II (ARG II)) [nM],IC50 (human-Arginase-1) [nM],other results
"NC(CCCCB(O)O)C(=O)O (stereo not drawn) [ABH, amino-6-boronohexanoic acid]",–,–,–,form of EAE developed versus control animals [1]: much milder form of EAE
"NC(CCCCB(O)O)(C(=O)O)[C@H]1C[C@@H](NCc2ccccc2-c2ccc(Cl)cc2)C1 (stereo partly drawn) [Example 22, (S)-2-amino-6-borono-2-((1s,3R)-3-((4′-chlorobiphenyl-2-yl)methylamino)cyclobutyl)hexanoic acid]",26 to 100,26 to 100,26000 to 100000,–
"NC(CCCCB(O)O)(C(=O)O)[C@H]1C[C@@H](NCc2ccc(-c3ccccc3)nc2)C1 (stereo partly drawn) [Example 23, (S)-2-amino-6-borono-2-((1s,3R)-3-((6-phenylpyridin-3-yl)methylamino)cyclobutyl)hexanoic acid]",26 to 100,0.1 to 25,1000 to 25000,–
"NC(CCCCB(O)O)(C(=O)O)[C@H]1C[C@@H](NCc2ccc3c(c2)Cc2ccccc2-3)C1 (stereo partly drawn) [Example 24, (S)-2-((1s,3R)-3-((9H-fluoren-2-yl)methylamino)cyclobutyl)-2-amino-6-boronohexanoic acid]",0.1 to 25,0.1 to 25,26000 to 100000,–
"NC(CCCCB(O)O)(C(=O)O)[C@H]1C[C@@H](NCc2ccccc2-c2ccc(C(F)(F)F)cc2)C1 (stereo partly drawn) [Example 25, (S)-2-amino-6-borono-2-((1s,3R)-3-((4′-(trifluoromethyl)biphenyl-2-yl)methylamino)cyclobutyl)hexanoic acid]",26 to 100,26 to 100,26000 to 100000,–
"NC(CCCCB(O)O)(C(=O)O)[C@H]1C[C@@H](NCc2ccc(C3CCCCC3)cc2)C1 (stereo partly drawn) [Example 26, (S)-2-amino-6-borono-2-((1s,3R)-3-(4-cyclohexylbenzylamino)cyclobutyl)hexanoic acid]",0.1 to 25,26 to 100,26000 to 100000,–
"NC(CCCCB(O)O)(C(=O)O)[C@H]1C[C@@H](N(Cc2ccccc2)Cc2ccccc2)C1 (stereo partly drawn) [Example 27, (S)-2-amino-6-borono-2-((1s,3R)-3-(dibenzylamino)cyclobutyl)hexanoic acid]",101 to 500,501 to 1500,26000 to 100000,–
"CNC(CCCCB(O)O)(CCN1Cc2ccccc2C1)C(=O)O (stereo not drawn) [Example 30, 6-borono-2-(2-(isoindolin-2-yl)ethyl)-2-(methylamino)hexanoic acid]",101 to 500,101 to 500,1000 to 25000,–
"CNC(CCCCB(O)O)(CCN1CCC(C)CC1)C(=O)O (stereo not drawn) [Example 33, 6-borono-2-(methylamino)-2-(2-(4-methylpiperidin-1-yl)ethyl)hexanoic acid]",101 to 500,101 to 500,26000 to 100000,–
"CNC(CCCCB(O)O)(CCNCc1ccc(Cl)c(Cl)c1)C(=O)O (stereo not drawn) [Example 35, 6-borono-2-(2-(3,4-dichlorobenzylamino)ethyl)-2-(methylamino)hexanoic acid]",101 to 500,101 to 500,26000 to 100000,–
"CNC(CCCCB(O)O)(CCN1CCC(c2ccccc2)CC1)C(=O)O (stereo not drawn) [Example 36, 6-borono-2-(methylamino)-2-(2-(4-phenylpiperidin-1-yl)ethyl)hexanoic acid]",101 to 500,101 to 500,1000 to 25000,–
"NC(CCCCB(O)O)(CCCN1Cc2ccccc2C1)C(=O)O (stereo not drawn) [Example 39, 2-amino-6-borono-2-(3-(isoindolin-2-yl)propyl)hexanoic acid]",26 to 100,101 to 500,1000 to 25000,–
"NC(CCCCB(O)O)(CCCN1CCc2c(Cl)cccc2C1)C(=O)O (stereo not drawn) [Example 40, 2-amino-6-borono-2-(3-(5-chloro-3,4-dihydroisoquinolin-2(1H)-yl)propyl)hexanoic acid]",26 to 100,101 to 500,1000 to 25000,–
"NC(CCCCB(O)O)(CCCN1CCc2ccccc2C1)C(=O)O (stereo not drawn) [Example 41, 2-amino-6-borono-2-(3-(3,4-dihydroisoquinolin-2(1H)-yl)propyl)hexanoic acid]",101 to 500,101 to 500,1000 to 25000,–
NC(CCCCB(O)O)(C(=O)O)[C@H]1CC[C@@H](NCc2ccc(-c3ccccc3)cc2)C1 (stereo partly drawn) [Example 44],26 to 100,26 to 100,26000 to 100000,–
"NC(CCCCB(O)O)(C(=O)O)C1CC2CCC(C1)N2Cc1ccc(Cl)cc1 [Example 45, 2-amino-6-borono-2-{(1R,5S)-8-(4-chlorobenzyl)-8-aza-bicycli[3.2.1]-octan-3-yl}-hexanoic acid]",0.1 to 25,26 to 100,1000 to 25000,–
"NC(CCCCB(O)O)(C(=O)O)C1CC2CCC(C1)N2Cc1ccc(Cl)c(Cl)c1 [Example 46, 2-Amino-6-borono-2-{(1R,5S)-8-(3,4-dichlorobenzyl)-8-aza-bicycli[3.2.1]-octan-3-yl}-hexanoic acid]",0.1 to 25,0.1 to 25,1000 to 25000,–
"NC(CCCCB(O)O)(C(=O)O)[C@H]1C[C@@H](NCc2ccc(-c3ccc(Cl)cc3)cc2F)C1 (stereo partly drawn) [Example 49, (S)-2-amino-6-borono-2-((1s,3R)-3-((4′-chloro-3-fluorobiphenyl-4-yl)methylamino)cyclobutyl)hexanoic acid]",0.1 to 25,0.1 to 25,1000 to 25000,–
"NC(CCCCB(O)O)(C(=O)O)[C@H]1C[C@@H](NCCCc2ccc(C(F)(F)F)cc2)C1 (stereo partly drawn) [Example 56, (S)-2-amino-6-borono-2-((1s,3R)-3-(3-(4-(trifluoromethyl)phenyl)propylamino)cyclobutyl)hexanoic acid]",0.1 to 25,26 to 100,26000 to 100000,–
"NC(CCCCB(O)O)(C(=O)O)C1CC2CCC(C1)N2 (stereo not drawn) [Example 61, 2-amino-2-(8-azabicyclo[3.2.1]octan-3-yl)-6-boronohexanoic acid]",26 to 100,26 to 100,1000 to 25000,–
"NC(CCCCB(O)O)(C(=O)O)C1CC2CCC(C1)N2Cc1ccccc1 (stereo not drawn) [Example 62, 2-amino-2-(8-benzyl-8-azabicyclo[3.2.1]octan-3-yl)-6-boronohexanoic acid]",0.1 to 25,26 to 100,1000 to 25000,–
"NC(CCCCB(O)O)(C(=O)O)C1CC2CCC(C1)N2Cc1ccc(F)c(F)c1 (stereo not drawn) [Example 63, 2-amino-6-borono-2-(8-(3,4-difluorobenzyl)-8-azabicyclo[3.2.1]octan-3-yl)hexanoic acid]",0.1 to 25,26 to 100,1000 to 25000,–
"NC(CCCCB(O)O)(C(=O)O)C1CC2CCC(C1)N2Cc1ccc(OC(F)(F)F)cc1 (stereo not drawn) [Example 64, 2-amino-6-borono-2-(8-(4-(trifluoromethoxy)benzyl)-8-azabicyclo[3.2.1]octan-3-yl)hexanoic acid]",26 to 100,26 to 100,26000 to 100000,–
"CCN(CCO)CC[C@](N)(CCCCB(O)O)C(=O)O [Example 67, (R)-2-amino-6-borono-2-(2-(ethyl(2-hydroxyethyl)amino)ethyl)hexanoic acid]",501 to 1500,101 to 500,1000 to 25000,–
"CCN(CC)CC[C@](N)(CCCCB(O)O)C(=O)O [Example 68, (R)-2-amino-6-borono-2-(2-(diethylamino)ethyl)hexanoic acid]",101 to 500,101 to 500,1000 to 25000,–
NC(=NCCC[C@H](N)C(=O)O)NO [NOHA],–,–,–,CD3 expression on T-cells (bacterial arginase): reestablished; production of NO by macrophages (bacterial arginase): enhanced
N[C@@H](CSCCB(O)O)C(=O)O [S-(2-boronoethyl)-L-cysteine],–,–,–,methacholine induced responsiveness of the central airways (murine chronic model): attenuated
"N=C(NO)NCC[C@H](N)C(=O)O [nor-NOHA, N^ω-hydroxy-nor-L-arginine]",–,–,–,blood pressure [2]: lowered; vascular response of resistance vessels to blood flow and pressure [2]: improved
